IC50 data for 19 molecules are collected here from patent US20240270739A1, “Heteroaryl Fluoroalkenes As DGK Inhibitors” (Incyte Corporation, priority 2023, published 2024).

Molecules are shown by their SMILES. Bounds are passed on as bounds.

The target of one experiment is T1, DGKα (Homo sapiens, UniProt P23743).
T1 construct: His; purchased Signal Chem D21-10BH
Nature of the experiment: In vitro DGKα inhibition assay (ADP-Glo). To be noted: His-tagged human recombinant enzyme, 0.1 nM DGKα, 50 μM ATP, 20 μM DLG, 90 minute incubation. The experiment is classed as biochemical. As for the experimental part: (§1) The DGKα and DGKζ biochemical reactions were performed using His-tagged human recombinant enzymes (Signal Chem, DGKα, #D21-10BH; DGKζ, #D30-10H)) and DLG (Dilauroyl-sn-glycerol) lipid substrate (Signal Chem, #D430-59). ADP-Glo assay was performed using ADP-Glo™ kinase Assay kit (Promega, #V9104). The reactions were carried out in assay buffer containing 40 mM Tris, pH 7.5, 0.1% CHAPS, 0.1% Prionex, 40 mM NaCl, 5 mM MgCl2, 1 mM CaCl2, and 1 mM DTT. DGKα reactions contained 0.1 nM DGKα, 50 μM ATP, and 20 μM DLG. And DGKζ reactions contained 0.4 nM DGKζ, 30 μM ATP, and 20 μM DLG.
(§2) For compound inhibition studies, 40 nL test compound in DMSO was added to wells of white polystyrene plates in 384-well (Greiner, #784075) or 1536-well format (Greiner, #782075). Compounds were added with top concentration of 2 mM with 11 point, 3-fold dilution series. Enzyme solution (contains 2×DGK enzyme concentration in 1× assay buffer) was added to the plate in 2 μL/well volume, followed by 2 μL/well of substrate solution (contains 2× concentration of ATP and DLG substrate in 1× assay buffer). Plates were then centrifuged for 1 min at 1200 RPM and sealed or lidded. For 4 μL reaction volume, test compounds were therefore diluted 100× to final top concentration of […]. After 90 minute incubation, reactions were quenched by addition of 2 μL/well Promega ADP-Glo Reagent, followed by centrifugation and lidding. After 60 min incubation, 2 μL/well Promega Kinase Detection Reagent was added, plates centrifuged, and incubated for 30 min. Plates were then read using Luminescence method on BMG PHERAstar FSX plate reader. Percent inhibition was calculated and IC50s were determined using 4-parameter fit in Genedata Screener. Labcyte Echo acoustic dispenser was used for compound addition, and Formulatrix Tempest liquid handler was used for all reagent dispenses. The compounds of the disclosure were tested in one or more of the assays described above, and the resulting data are shown in Table A.
For orientation: In ADP-Glo the light output rises with the ADP produced.

For a further experiment, the target named is T2, DGKζ (Homo sapiens, UniProt Q13574).
T2 construct: His; purchased Signal Chem D30-10H
T2 sequence (Q13574 whole entry): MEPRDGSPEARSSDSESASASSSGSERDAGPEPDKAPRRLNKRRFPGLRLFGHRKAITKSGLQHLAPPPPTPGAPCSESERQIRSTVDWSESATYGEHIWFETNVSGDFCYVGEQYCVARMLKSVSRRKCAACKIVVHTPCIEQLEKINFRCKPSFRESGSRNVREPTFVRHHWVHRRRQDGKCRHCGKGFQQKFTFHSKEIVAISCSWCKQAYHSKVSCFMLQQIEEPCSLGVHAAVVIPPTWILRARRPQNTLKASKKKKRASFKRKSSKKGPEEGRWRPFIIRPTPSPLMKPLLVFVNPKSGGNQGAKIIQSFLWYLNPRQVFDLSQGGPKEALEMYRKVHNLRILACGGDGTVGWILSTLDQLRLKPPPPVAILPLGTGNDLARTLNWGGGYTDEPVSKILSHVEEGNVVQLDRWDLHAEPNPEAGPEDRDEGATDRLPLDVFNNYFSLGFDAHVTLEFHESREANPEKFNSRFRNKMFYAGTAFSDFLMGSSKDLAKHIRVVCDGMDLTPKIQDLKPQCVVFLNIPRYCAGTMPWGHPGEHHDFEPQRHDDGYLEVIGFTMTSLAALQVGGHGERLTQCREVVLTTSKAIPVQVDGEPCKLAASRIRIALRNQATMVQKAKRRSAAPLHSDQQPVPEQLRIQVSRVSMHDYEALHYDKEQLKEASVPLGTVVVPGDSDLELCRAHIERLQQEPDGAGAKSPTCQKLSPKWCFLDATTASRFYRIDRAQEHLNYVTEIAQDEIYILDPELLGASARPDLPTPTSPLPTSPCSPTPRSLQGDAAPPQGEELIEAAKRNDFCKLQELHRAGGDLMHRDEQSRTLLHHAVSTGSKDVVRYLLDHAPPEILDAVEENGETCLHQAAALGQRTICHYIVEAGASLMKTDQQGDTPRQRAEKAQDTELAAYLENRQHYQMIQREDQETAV
The experiment is described as follows: In vitro DGKζ inhibition assay (ADP-Glo). Format: biochemical. The conditions noted are these: His-tagged human recombinant enzyme, 0.4 nM DGKζ, 30 μM ATP, 20 μM DLG, 90 minute incubation. As for the experimental part:
as §1, §2

T1 sequence (P23743 whole entry): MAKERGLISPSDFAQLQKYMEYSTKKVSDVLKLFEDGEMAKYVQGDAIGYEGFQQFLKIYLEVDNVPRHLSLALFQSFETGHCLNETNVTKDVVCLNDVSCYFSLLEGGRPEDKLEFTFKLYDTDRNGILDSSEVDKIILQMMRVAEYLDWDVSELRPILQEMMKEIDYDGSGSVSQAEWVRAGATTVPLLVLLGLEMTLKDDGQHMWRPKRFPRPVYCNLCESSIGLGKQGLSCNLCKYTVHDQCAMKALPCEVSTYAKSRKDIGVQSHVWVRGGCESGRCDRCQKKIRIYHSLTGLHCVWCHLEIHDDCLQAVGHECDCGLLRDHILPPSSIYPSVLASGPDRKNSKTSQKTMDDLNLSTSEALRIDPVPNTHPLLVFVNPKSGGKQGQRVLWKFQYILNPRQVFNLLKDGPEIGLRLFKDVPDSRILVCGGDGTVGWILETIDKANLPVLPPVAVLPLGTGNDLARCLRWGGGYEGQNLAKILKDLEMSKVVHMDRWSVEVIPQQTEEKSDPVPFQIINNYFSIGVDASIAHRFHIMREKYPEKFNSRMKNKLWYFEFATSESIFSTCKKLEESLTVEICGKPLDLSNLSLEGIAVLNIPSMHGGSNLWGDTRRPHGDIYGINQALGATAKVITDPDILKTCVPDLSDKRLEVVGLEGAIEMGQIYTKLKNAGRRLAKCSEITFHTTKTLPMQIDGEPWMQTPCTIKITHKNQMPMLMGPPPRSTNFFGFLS

With `NC[C@@H]1CCCN(c2c(/C=C(\F)c3csc(-c4ccnnc4)n3)ccc(Oc3ccccc3F)c2C(F)(F)F)C1` [Example 1, (S,Z)-(1-(6-(2-Fluoro-2-(2-(pyridazin-4-yl)thiazol-4-yl)vinyl)-3-(2-fluorophenoxy)-2-(trifluoromethyl)phenyl)piperidin-3-yl)methanamine], the IC50 at DGKα and on DGKζ was at most 20 nM throughout.

Regarding `NC[C@@H]1CCCN(c2c(/C=C(\F)c3ccn(-c4ccnnc4)n3)ccc(Oc3ccccc3F)c2C(F)(F)F)C1` [Example 2, (S,Z)-(1-(6-(2-Fluoro-2-(1-(pyridazin-4-yl)-1H-pyrazol-3-yl)vinyl)-3-(2-fluorophenoxy)-2-(trifluoromethyl)phenyl)piperidin-3-yl)methanamine], the IC50 at DGKα and at DGKζ was at most 20 nM each time.

As for `COc1cc(F)ccc1Oc1ccc(/C=C(\F)c2csc(-c3ccnnc3)n2)c(N2CCC[C@@H](CN)C2)c1Cl` [Example 3, (S,Z)-(1-(2-Chloro-6-(2-fluoro-2-(2-(pyridazin-4-yl)thiazol-4-yl)vinyl)-3-(4-fluoro-2-methoxyphenoxy)phenyl)piperidin-3-yl)methanamine], the half-maximal inhibitory concentration (IC50) on DGKα and at DGKζ was at most 20 nM throughout.

In the case of `CN(c1c(/C=C(\F)c2csc(-c3ccnnc3)n2)ccc(Oc2ccccc2F)c1C(F)(F)F)[C@H]1CCNC[C@H]1F` [Example 4, (3R,4S)-3-Fluoro-N-(6-((Z)-2-fluoro-2-(2-(pyridazin-4-yl)thiazol-4-yl)vinyl)-3-(2-fluorophenoxy)-2-(trifluoromethyl)phenyl)-N-methylpiperidin-4-amine], the IC50 at DGKα and at DGKζ was 20 to 200 nM throughout.

With `F/C(=C\c1ccc(Oc2ccccc2)c(C(F)(F)F)c1N1CCOC2(CCNCC2)C1)c1csc(-c2ccnnc2)n1` [Example 5, (Z)-4-(6-(2-Fluoro-2-(2-(pyridazin-4-yl)thiazol-4-yl)vinyl)-3-phenoxy-2-(trifluoromethyl)phenyl)-1-oxa-4,9-diazaspiro[5.5]undecane], the IC50 at DGKα and at DGKζ was at most 20 nM in each case.

As to `CCN1CCC2(CC1)CN(c1c(/C=C(\F)c3csc(-c4ccnnc4)n3)ccc(Oc3ccccc3)c1C(F)(F)F)CCO2` [Example 6, (Z)-9-Ethyl-4-(6-(2-fluoro-2-(2-(pyridazin-4-yl)thiazol-4-yl)vinyl)-3-phenoxy-2-(trifluoromethyl)phenyl)-1-oxa-4,9-diazaspiro[5.5]undecane], the IC50 (usually the midpoint of a concentration-inhibition curve) on DGKα was 20 to 200 nM; on DGKζ it was at most 20 nM.

`F/C(=C\c1ccc(OC2CCC2)c(C(F)(F)F)c1N1CCOC2(CCNCC2)C1)c1csc(-c2ccnnc2)n1` [Example 7, (Z)-4-(3-Cyclobutoxy-6-(2-fluoro-2-(2-(pyridazin-4-yl)thiazol-4-yl)vinyl)-2-(trifluoromethyl)phenyl)-1-oxa-4,9-diazaspiro[5.5]undecane]: the IC50 on DGKα is at most 20 nM; at DGKζ it was 20 to 200 nM.

In the case of `F/C(=C\c1ccc(Oc2cccc(F)c2F)c(C(F)(F)F)c1N1CCCC2(CCNCC2)C1)c1csc(-c2cnsc2)n1` [Example 8, (Z)-4-(4-(2-(4-(2,3-Difluorophenoxy)-2-(2,9-diazaspiro[5.5]undecan-2-yl)-3-(trifluoromethyl)phenyl)-1-fluorovinyl)thiazol-2-yl)isothiazole], the values for the IC50 at DGKα and at DGKζ were at most 20 nM and 20 to 200 nM, respectively.

As for `F/C(=C\c1ccc(Oc2ccccc2)c(C(F)(F)F)c1N1CCCC2(CCNCC2)C1)c1csc(N2CCC(F)(F)C2)n1` [Example 9, (Z)-2-(3,3-Difluoropyrrolidin-1-yl)-4-(1-fluoro-2-(4-phenoxy-2-(2,9-diazaspiro[5.5]undecan-2-yl)-3-(trifluoromethyl)phenyl)vinyl)thiazole], the IC50 on DGKα lay in the range of 20 to 200 nM; at DGKζ it was 200 to 2000 nM.

Take `F/C(=C\c1ccc(Oc2cccc(F)c2F)c(C(F)(F)F)c1N1CCCC2(CCN(CC3CC3)CC2)C1)c1ccn(-c2ccnnc2)n1` [Example 10, (Z)-9-(Cyclopropylmethyl)-2-(3-(2,3-difluorophenoxy)-6-(2-fluoro-2-(1-(pyridazin-4-yl)-1H-pyrazol-3-yl)vinyl)-2-(trifluoromethyl)phenyl)-2,9-diazaspiro[5.5]undecane]: the values for the IC50 at DGKα and on DGKζ were 20 to 200 nM and at most 20 nM, respectively.

On to `F/C(=C\c1ccc(Oc2cccc(F)c2F)c(C(F)(F)F)c1N1CCCC2(CCN(CC3CC3)CC2)C1)c1csc(-c2ccnnc2)n1` [Example 11, (Z)-4-(2-(2-(9-(Cyclopropylmethyl)-2,9-diazaspiro[5.5]undecan-2-yl)-4-(2,3-difluorophenoxy)-3-(trifluoromethyl)phenyl)-1-fluorovinyl)-2-(pyridazin-4-yl)thiazole], for which the IC50 at DGKα and at DGKζ was at most 20 nM throughout.

In the case of `CC(C)(O)CN1CCC2(CCCN(c3c(/C=C(\F)c4csc(-c5ccnnc5)n4)ccc(Oc4ccccn4)c3C(F)(F)F)C2)CC1` [Example 12, (Z)-1-(2-(6-(2-Fluoro-2-(2-(pyridazin-4-yl)thiazol-4-yl)vinyl)-3-(pyridin-2-yloxy)-2-(trifluoromethyl)phenyl)-2,9-diazaspiro[5.5]undecan-9-yl)-2-methylpropan-2-ol], the IC50 at DGKα and on DGKζ was at most 20 nM in each case.

In the case of `OCCN1CCC2(CCCN(c3c(/C=C(\F)c4csc(-c5ccnnc5)n4)ccc(Oc4ccccn4)c3C(F)(F)F)C2)CC1` [Example 13, (Z)-2-(2-(6-(2-Fluoro-2-(2-(pyridazin-4-yl)thiazol-4-yl)vinyl)-3-(pyridin-2-yloxy)-2-(trifluoromethyl)phenyl)-2,9-diazaspiro[5.5]undecan-9-yl)ethan-1-ol], the IC50 at DGKα and on DGKζ was at most 20 nM each time.

`F/C(=C\c1ccc(Oc2ccccn2)c(C(F)(F)F)c1N1CCCC2(CCN(CC3CC3)CC2)C1)c1csc(-c2ccnnc2)n1` [Example 14, (Z)-4-(2-(2-(9-(Cyclopropylmethyl)-2,9-diazaspiro[5.5]undecan-2-yl)-4-(pyridin-2-yloxy)-3-(trifluoromethyl)phenyl)-1-fluorovinyl)-2-(pyridazin-4-yl)thiazole]: the IC50 on DGKα and at DGKζ was at most 20 nM in each case.

`F/C(=C\c1ccc(OC2CCCCC2)c(C(F)(F)F)c1N1CCCC2(CCN(CC3CC3)CC2)C1)c1ccn(-c2ccnnc2)n1` [Example 15, (Z)-2-(3-(Cyclohexyloxy)-6-(2-fluoro-2-(1-(pyridazin-4-yl)-1H-pyrazol-3-yl)vinyl)-2-(trifluoromethyl)phenyl)-9-(cyclopropylmethyl)-2,9-diazaspiro[5.5]undecane]: the IC50 is 20 to 200 nM on DGKα and at most 20 nM at DGKζ.

Turning to `F/C(=C\c1ccc(Oc2ccccn2)c(C(F)(F)F)c1N1CCCC2(CCN(CC3CC3)CC2)C1)c1ccn(-c2ccnnc2)n1` [Example 16, (Z)-9-(Cyclopropylmethyl)-2-(6-(2-fluoro-2-(1-(pyridazin-4-yl)-1H-pyrazol-3-yl)vinyl)-3-(pyridin-2-yloxy)-2-(trifluoromethyl)phenyl)-2,9-diazaspiro[5.5]undecane], the IC50 on DGKα and at DGKζ was at most 20 nM in each case.

As to `CCN1CCC2(CCCN(c3c(/C=C(\F)c4csc(-c5ccnnc5)n4)ccc(Oc4ccccc4)c3C(F)(F)F)C2)CC1` [Example 17, (Z)-4-(2-(2-(9-Ethyl-2,9-diazaspiro[5.5]undecan-2-yl)-4-phenoxy-3-(trifluoromethyl)phenyl)-1-fluorovinyl)-2-(pyridazin-4-yl)thiazole], the IC50 at DGKα and on DGKζ was at most 20 nM each time.

In the case of `F/C(=C\c1ccc(Oc2ccccc2)c(C(F)(F)F)c1N1CCCC2(CCN(CC3CC3)CC2)C1)c1csc(-c2ccnnc2)n1` [Example 18, (Z)-4-(2-(2-(9-(Cyclopropylmethyl)-2,9-diazaspiro[5.5]undecan-2-yl)-4-phenoxy-3-(trifluoromethyl)phenyl)-1-fluorovinyl)-2-(pyridazin-4-yl)thiazole], the 50% inhibitory concentration (IC50) was 20 to 200 nM at DGKα and at most 20 nM at DGKζ.

With `CCN1CC2(CCCN(c3c(/C=C(\F)c4ccn(-c5ccnnc5)n4)ccc(Oc4cccc(F)c4F)c3C(F)(F)F)C2)C1` [Example 19, (Z)-6-(3-(2,3-Difluorophenoxy)-6-(2-fluoro-2-(1-(pyridazin-4-yl)-1H-pyrazol-3-yl)vinyl)-2-(trifluoromethyl)phenyl)-2-ethyl-2,6-diazaspiro[3.5]nonane], the half-maximal inhibitory concentration (IC50) at DGKα and at DGKζ was at most 20 nM throughout.
